Experimental data as given in US10544143B2, “4-azaindole compounds” (BRISTOL-MYERS SQUIBB COMPANY, priority 2017, dated 2020).
Like-named read-outs stand apart in the source and are kept apart here.

How the values were obtained:
human TLR8 = human TLR8 (Homo sapiens (Human), UniProt Q9NR97); test: TLR8 inhibition reporter assay (HEK-Blue SEAP); conditions: read-out: TLR8 IC50;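 note: SEAP driven by IFN-β minimal promoter carrying NF-κB and AP-1 sites, compounds dosed 0.05 nM to 50 µM for 22 h, inhibition scaled between agonist-plus-DMSO and reference-inhibitor wells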
Chain of human TLR8 (Q9NR97 27-1041): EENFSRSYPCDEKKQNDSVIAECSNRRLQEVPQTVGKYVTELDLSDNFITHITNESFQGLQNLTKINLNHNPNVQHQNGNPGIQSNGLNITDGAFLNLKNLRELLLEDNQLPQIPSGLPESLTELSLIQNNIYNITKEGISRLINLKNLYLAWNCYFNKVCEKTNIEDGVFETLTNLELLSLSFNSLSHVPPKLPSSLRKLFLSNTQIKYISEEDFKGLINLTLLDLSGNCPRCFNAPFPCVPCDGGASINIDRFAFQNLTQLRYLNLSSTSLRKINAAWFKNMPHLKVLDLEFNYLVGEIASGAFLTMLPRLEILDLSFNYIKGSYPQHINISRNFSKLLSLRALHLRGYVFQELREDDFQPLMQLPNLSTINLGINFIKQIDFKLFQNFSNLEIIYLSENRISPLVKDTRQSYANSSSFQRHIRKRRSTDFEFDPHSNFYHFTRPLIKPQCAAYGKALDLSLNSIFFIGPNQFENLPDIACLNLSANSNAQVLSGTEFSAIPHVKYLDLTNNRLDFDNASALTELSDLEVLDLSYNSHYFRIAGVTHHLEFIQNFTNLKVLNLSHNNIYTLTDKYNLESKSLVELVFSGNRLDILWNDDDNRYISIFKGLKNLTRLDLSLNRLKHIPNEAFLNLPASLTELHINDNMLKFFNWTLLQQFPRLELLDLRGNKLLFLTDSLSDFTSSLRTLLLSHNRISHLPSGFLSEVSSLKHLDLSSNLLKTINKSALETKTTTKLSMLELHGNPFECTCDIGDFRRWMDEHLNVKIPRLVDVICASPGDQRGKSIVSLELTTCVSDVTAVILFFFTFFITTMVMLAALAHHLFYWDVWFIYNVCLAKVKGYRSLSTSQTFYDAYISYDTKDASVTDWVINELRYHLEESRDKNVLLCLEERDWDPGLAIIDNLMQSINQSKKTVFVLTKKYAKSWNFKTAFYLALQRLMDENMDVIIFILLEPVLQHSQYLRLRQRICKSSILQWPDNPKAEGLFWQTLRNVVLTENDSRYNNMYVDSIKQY

human TLR9 = human TLR9 (Homo sapiens (Human), UniProt Q9NR96); test: TLR9 inhibition reporter assay (HEK-Blue SEAP); conditions: read-out: TLR9 IC50;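 note: SEAP driven by an IFN-β minimal promoter with NF-κB and AP-1 sites, read after 22 h, compounds dosed 0.05 nM–50 µM, inhibition scaled between agonist plus DMSO and reference-inhibitor wells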
Chain of human TLR9 (Q9NR96 26-1032): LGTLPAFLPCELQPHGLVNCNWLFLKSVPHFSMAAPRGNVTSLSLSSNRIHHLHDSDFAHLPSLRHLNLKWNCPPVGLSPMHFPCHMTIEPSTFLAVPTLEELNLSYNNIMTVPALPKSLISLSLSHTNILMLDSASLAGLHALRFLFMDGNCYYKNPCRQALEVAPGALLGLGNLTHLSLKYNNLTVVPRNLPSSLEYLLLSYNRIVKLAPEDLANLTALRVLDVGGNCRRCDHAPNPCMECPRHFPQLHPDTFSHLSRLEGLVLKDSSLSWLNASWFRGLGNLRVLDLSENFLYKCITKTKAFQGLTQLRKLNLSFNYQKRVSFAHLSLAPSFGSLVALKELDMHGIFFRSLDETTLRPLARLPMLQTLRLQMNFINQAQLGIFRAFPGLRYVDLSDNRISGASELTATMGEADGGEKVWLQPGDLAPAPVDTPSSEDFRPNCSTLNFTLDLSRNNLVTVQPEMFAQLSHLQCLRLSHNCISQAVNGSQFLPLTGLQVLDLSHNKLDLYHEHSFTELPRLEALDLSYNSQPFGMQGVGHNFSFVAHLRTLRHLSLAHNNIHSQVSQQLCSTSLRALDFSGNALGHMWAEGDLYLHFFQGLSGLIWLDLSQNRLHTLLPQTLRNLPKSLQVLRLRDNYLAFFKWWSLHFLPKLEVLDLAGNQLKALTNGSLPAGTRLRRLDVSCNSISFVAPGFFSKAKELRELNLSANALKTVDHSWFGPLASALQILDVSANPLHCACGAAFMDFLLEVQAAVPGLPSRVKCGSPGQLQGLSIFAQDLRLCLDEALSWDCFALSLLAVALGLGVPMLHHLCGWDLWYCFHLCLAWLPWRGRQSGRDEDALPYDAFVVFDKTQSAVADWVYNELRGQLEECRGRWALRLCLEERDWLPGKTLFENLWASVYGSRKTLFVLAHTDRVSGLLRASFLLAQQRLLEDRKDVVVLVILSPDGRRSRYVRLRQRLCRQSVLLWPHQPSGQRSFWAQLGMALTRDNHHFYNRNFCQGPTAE

human TLR7 = human TLR7 (Homo sapiens (Human), UniProt Q9NYK1); test: TLR7 inhibition reporter assay (HEK-Blue SEAP); type: cell-based
Chain of human TLR7 (Q9NYK1 27-1049): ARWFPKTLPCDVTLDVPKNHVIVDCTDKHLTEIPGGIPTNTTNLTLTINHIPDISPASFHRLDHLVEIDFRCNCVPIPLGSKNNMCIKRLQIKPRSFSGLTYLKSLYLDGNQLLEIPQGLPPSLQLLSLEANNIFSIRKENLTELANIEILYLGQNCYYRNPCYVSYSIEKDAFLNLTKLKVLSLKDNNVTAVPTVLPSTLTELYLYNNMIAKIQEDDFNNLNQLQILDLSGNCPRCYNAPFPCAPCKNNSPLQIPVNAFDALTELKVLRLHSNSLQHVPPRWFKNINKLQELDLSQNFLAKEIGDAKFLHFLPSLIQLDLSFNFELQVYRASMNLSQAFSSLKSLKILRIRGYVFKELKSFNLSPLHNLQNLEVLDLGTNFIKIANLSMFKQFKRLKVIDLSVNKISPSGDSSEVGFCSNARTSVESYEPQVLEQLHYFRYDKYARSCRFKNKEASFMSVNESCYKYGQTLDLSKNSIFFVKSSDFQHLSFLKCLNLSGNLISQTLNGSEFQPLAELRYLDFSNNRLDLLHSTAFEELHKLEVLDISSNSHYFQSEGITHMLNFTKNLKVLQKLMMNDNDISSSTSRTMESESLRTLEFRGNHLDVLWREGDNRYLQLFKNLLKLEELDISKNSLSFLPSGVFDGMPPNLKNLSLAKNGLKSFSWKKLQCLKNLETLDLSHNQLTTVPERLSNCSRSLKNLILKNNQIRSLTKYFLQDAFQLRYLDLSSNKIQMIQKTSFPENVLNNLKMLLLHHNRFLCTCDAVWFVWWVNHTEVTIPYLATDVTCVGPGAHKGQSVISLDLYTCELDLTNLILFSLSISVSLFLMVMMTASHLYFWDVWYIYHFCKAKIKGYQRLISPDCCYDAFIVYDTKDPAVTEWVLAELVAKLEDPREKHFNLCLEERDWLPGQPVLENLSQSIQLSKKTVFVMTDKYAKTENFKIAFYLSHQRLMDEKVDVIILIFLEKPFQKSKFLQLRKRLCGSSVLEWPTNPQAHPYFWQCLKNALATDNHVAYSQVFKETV

[1] = HEK-Blue cells overexpressing human TLR8, R848 15.9 μM stimulation, SEAP reporter
[2] = HEK-Blue cells overexpressing human TLR9, ODN2006 5 nM stimulation, SEAP reporter
[3] = HEK-Blue cells overexpressing human TLR7, gardiquimod 7.5 μM stimulation, SEAP reporter
[4] = HEK-Blue human TLR8 cells, R848 15.9 μM
[5] = HEK-Blue human TLR9 cells, ODN2006 5 nM
[6] = HEK-Blue human TLR7 cells, gardiquimod 7.5 μM
[7] = HEK-Blue cells overexpressing human TLR8, SEAP reporter, R848 15.9 μM
[8] = HEK-Blue cells overexpressing human TLR9, SEAP reporter, ODN2006 5 nM
[9] = HEK-Blue cells overexpressing human TLR7, SEAP reporter, gardiquimod 7.5 μM

Row | Compound | IC50 (human TLR8; [1]) [nM] | IC50 (human TLR9; [2]) [nM] | IC50 (human TLR7; [3]) [nM] | IC50 (human TLR8; [7]) [nM] | IC50 (human TLR9; [8]) [nM] | IC50 (human TLR7; [9]) [nM] | further results
1 | COc1cc(-c2[nH]c3ccc(N4CCN(C(C)CO)CC4)nc3c2C(C)C)cn2ncnc12 (stereo not drawn) [Example 117] | 0.81 | 5640 | 1.4 | – | – | – | –
2 | COc1cc(-c2[nH]c3ccc(N4CC(NC(=O)CN(C)C)C4)nc3c2C(C)C)cn2ncnc12 [Example 17] | 7.7 | 1100 | 3.7 | – | – | – | –
3 | Cc1c(-c2[nH]c3ccc(N4CC5(CN(CC(C)(C)O)C5)C4)nc3c2C(C)C)cn2ncnc2c1C [Example 1004] | – | – | – | – | – | – | IC50 (human TLR8; [4]): 1.3 nM; IC50 (human TLR9; [5]): 2790 nM; IC50 (human TLR7; [6]): 2.1 nM
4 | CNC1CN(c2ccc3[nH]c(-c4cc(OC)c5ncnn5c4)c(C(C)C)c3n2)C1 [Example 31] | 19 | 6060 | 13 | – | – | – | –
5 | Cc1c(-c2[nH]c3ccc(C4CCC(N5CC(C#N)C5)CC4)nc3c2C(C)C)cn2ncnc2c1C (stereo not drawn) [Example 434] | – | – | – | 2.4 | 7430 | 1.5 | –
6 | COc1cc(-c2[nH]c3ccc(C4CCC(N5CC6(COC6)C5)CC4)nc3c2C(C)C)cn2ncnc12 (stereo not drawn) [Example 244] | 8.2 | 2350 | 1.6 | – | – | – | –
7 | Cc1c(-c2[nH]c3ccc(CCC4CN(CC5(C)COC5)C4)nc3c2C(C)C)cn2ncnc2c1C [Example 702] | – | – | – | 14 | 2230 | 41 | –
8 | Cc1c(-c2[nH]c3ccc(N4CCN(C(=O)CN5CCOCC5(C)C)CC4)nc3c2C(C)C)cn2ncnc2c1C [Example 950] | – | – | – | – | – | – | IC50 (human TLR8; [4]): 4.9 nM; IC50 (human TLR9; [5]): 36100 nM; IC50 (human TLR7; [6]): 7.2 nM
9 | Cc1c(-c2[nH]c3ccc(N4CCN(C(=O)CN(C)C(C)C)[C@H](C)C4)nc3c2C(C)C)cn2ncnc2c1C [Example 943] | – | – | – | – | – | – | IC50 (human TLR8; [4]): 1.1 nM; IC50 (human TLR9; [5]): 10000 nM; IC50 (human TLR7; [6]): 1.1 nM
10 | Cc1c(-c2[nH]c3ccc(C4CCC(NC5(CO)COC5)CC4)nc3c2C(C)C)cn2ncnc2c1C (stereo not drawn) [Example 483] | – | – | – | 1.2 | 5130 | 0.94 | –
11 | COc1cc(-c2[nH]c3ccc(N4CCN(CC5CCOC5)CC4)nc3c2C(C)C)cn2ncnc12 (stereo not drawn) [Example 107] | 0.37 | 5630 | 2.2 | – | – | – | –
12 | COc1cc(-c2[nH]c3cc(F)c(C4CCC(N5CC6(COC6)C5)CC4)nc3c2C(C)C)cn2ncnc12 (stereo not drawn) [Example 344] | 4.8 | 2790 | 0.72 | – | – | – | –
13 | COc1cc(-c2[nH]c3ccc(C4CC(N(C)CCS(C)(=O)=O)C4)nc3c2C(C)C)cn2ncnc12 (stereo not drawn) [Example 640] | – | – | – | 4.9 | 13500 | 4.9 | –
14 | Cc1c(-c2[nH]c3ccc(N4CCN(C(=O)CN(C)C(C)(C)C)C[C@@H]4C)nc3c2C(C)C)cn2ncnc2c1C [Example 905] | – | – | – | – | – | – | IC50 (human TLR8; [4]): 0.82 nM; IC50 (human TLR9; [5]): 12000 nM; IC50 (human TLR7; [6]): 0.51 nM
15 | CCNCC(=O)N1CCN(c2ccc3[nH]c(-c4cn5ncnc5c(C)c4C)c(C(C)C)c3n2)CC1 [Example 970] | – | – | – | – | – | – | IC50 (human TLR8; [4]): 0.92 nM; IC50 (human TLR9; [5]): 10700 nM; IC50 (human TLR7; [6]): 3.1 nM
16 | CNC(=O)CNC1CCC(c2ccc3[nH]c(-c4cc(OC)c5ncnn5c4)c(C(C)C)c3n2)C1 (stereo not drawn) [Example 719] | – | – | – | 7 | 2600 | 2.8 | –
17 | Cc1cc(-c2[nH]c3ccc(C4CCNCC4)nc3c2C(C)C)cn2nnnc12 [Example 517] | – | – | – | 6 | 150 | 1.1 | –
18 | COc1cc(-c2[nH]c3ccc(C4CCC(N(C)CCS(C)(=O)=O)CC4)nc3c2C(C)C)cn2ncnc12 (stereo not drawn) [Example 241] | 2.9 | 1750 | 2 | – | – | – | –
19 | CNC1CCC(c2ccc3[nH]c(-c4cn5ncnc5c(C)c4C)c(C(C)C)c3n2)CC1 (single isomer, unassigned) [Example 367, 4-(2-(7,8-dimethyl-[1,2,4]triazolo[1,5-a]pyridin-6-yl)-3-isopropyl-1H-pyrrolo[3,2-b]pyridin-5-yl)-N-methylcyclohexanamine] | 3.5 | 838 | 1.5 | – | – | – | –
20 | Cc1c(-c2[nH]c3ccc(N4CCN(C(=O)CN5CC(C)(O)C5)CC4)nc3c2C(C)C)cn2ncnc2c1C [Example 946] | – | – | – | – | – | – | IC50 (human TLR8; [4]): 1.8 nM; IC50 (human TLR9; [5]): 8950 nM; IC50 (human TLR7; [6]): 1.4 nM
21 | Cc1c(-c2[nH]c3ccc(N4CCN(C(C)C)[C@@H](C)C4)nc3c2C(C)C)cn2ncnc2c1C [Example 792] | – | – | – | 1 | 8560 | 4 | –
22 | COc1cc(-c2[nH]c3ccc(C4CCC(NCC5(C)COC5)C4)nc3c2C(C)C)cn2ncnc12 (stereo not drawn) [Example 728] | – | – | – | 0.67 | 3540 | 0.74 | –
23 | Cc1c(-c2[nH]c3ccc(C4CCC(NC5COC5)CC4)nc3c2C(C)C)cn2ncnc2c1C (stereo not drawn) [Example 351] | 4.3 | 1690 | 2.3 | – | – | – | –
